≈ marks a conversion by molar mass, not a printed value.
Legend:
C. difficile ATCC 43596 = assay: Broth microdilution MIC, anaerobic; assay type: cell-based, Clostridium difficile; details: Clostridioides difficile, ATCC43596, 48h at 37°C, read-out: MIC regarding C. difficile ATCC 43596
C. difficile ATCC 9689 = assay: Broth microdilution MIC, anaerobic; assay type: cell-based, Clostridium difficile; details: Clostridioides difficile, ATCC9689, 48h at 37°C, read-out: MIC regarding C. difficile ATCC 9689
C. difficile NC 13366 = assay: Broth microdilution MIC, anaerobic; assay type: cell-based, Clostridium difficile; details: Clostridioides difficile, NC13366, 48h at 37°C, quinolone-resistant hypervirulent strain, read-out: MIC regarding C. difficile NC 13366
[1] = tested on: 209 diverse clinical isolates of C. difficile; assay: CLSI agar dilution MIC, clinical isolates; assay type: cell-based, Clostridium difficile; details: Clostridioides difficile, 48 h; 209 clinical isolates of C. difficile; read-out: MIC90
[2] = tested on: Fusobacterium necrophorum A-1260 DSM 20698; assay: Agar dilution MIC, anaerobic strains; assay type: cell-based; details: DSM20698, 48 h
[3] = tested on: Bacteroides vulgatus A-989 ATCC 8482; assay: Agar dilution MIC, anaerobic strains; assay type: cell-based; details: Phocaeicola vulgatus, ATCC8482, 48 h
[4] = tested on: Bacteroides fragilis A-348 T 8673; assay: Agar dilution MIC, anaerobic strains; assay type: cell-based; details: A348T8673, 48 h
[5] = tested on: Bacteroides fragilis A-294 T 9174; assay: Agar dilution MIC, anaerobic strains; assay type: cell-based; details: A294T9174, 48 h
[6] = tested on: Bacteroides fragilis A-293 B 2518; assay: Agar dilution MIC, anaerobic strains; assay type: cell-based; details: A293B2518, 48 h
[7] = tested on: Bacteroides fragilis A-260 T 9865; assay: Agar dilution MIC, anaerobic strains; assay type: cell-based; details: A260T9865, 48 h
[8] = tested on: Eubacterium limosum A-1259 DSM 20698; assay: Agar dilution MIC, anaerobic strains; assay type: cell-based
[9] = tested on: Bifidobacterium bifidum A-1258 DSM 20456; assay: Agar dilution MIC, anaerobic strains; assay type: cell-based; details: DSM20456, 48 h
[10] = tested on: Lactobacillus acidophilus A-1255 DSM 20079; assay: Agar dilution MIC, anaerobic strains; assay type: cell-based
[11] = tested on: Lactococcus lactis A-1256 DSM 20069; assay: Agar dilution MIC, anaerobic strains; assay type: cell-based
[12] = tested on: C. difficile strain NC 13366; assay type: cell-based; details: 1 and 8 µg/ml; supernatants at day 5; high density stationary phase cultures
[13] = tested on: C. difficile A-1050 (ATCC 43596); assay: Spore formation at sub-MIC concentrations; assay type: cell-based; details: 0.5x the MIC; 4 days anaerobic incubation at 37°C
S. aureus ATCC 29213 = assay: Broth microdilution MIC, aerobic Gram-positive bacteria; details: Staphylococcus aureus, ATCC29213, 48 h
S. aureus A-798 (MRSA) = assay: as above; details: Staphylococcus aureus, 48 h
[14] = tested on: S. aureus ATCC 43300 (MRSA); assay: as above; details: Staphylococcus aureus, 48 h
E. faecalis ATCC 29212 = assay: as above; details: Enterococcus faecalis, ATCC29212, 48 h
E. faecalis H 4060 = assay: as above; details: Enterococcus faecalis, H4060, 48 h
E. faecalis H 6279 = assay: as above; details: Enterococcus faecalis, H6279, 48 h
E. faecalis H 7094 = assay: as above; details: Enterococcus faecalis, H7094, 48 h
E. faecalis H 7460 = assay: as above; details: Enterococcus faecalis, H7460, 48 h
E. faecium ATCC 19434 = assay: as above; details: Enterococcus faecium, ATCC19434, 48 h
E. faecium H 9070 = assay: as above; details: Enterococcus faecium, H9070, 48 h
E. faecium H 7969 = assay: as above; details: Enterococcus faecium, H7969, 48 h
E. faecium H 7966 = assay: as above; details: Enterococcus faecium, H7966, 48 h
E. faecium H 7937 = assay: as above; details: Enterococcus faecium, H7937, 48 h
E. faecium A 962 = assay: as above; details: Enterococcus faecium, A962, 48 h
E. faecium A 949 = assay: as above; details: Enterococcus faecium, A949, 48 h
E. faecium L1 (LZD-R) = assay: as above; details: Enterococcus faecium, 48 h

Structure (SMILES): O=C(O)c1cn(C2CC2)c2cc(N3CCC(O)(COc4ccc(N5C[C@H](CO)OC5=O)cc4F)CC3)c(F)cc2c1=O [Example 1, 1-cyclopropyl-6-fluoro-7-{4-[2-fluoro-4-((R)-5-hydroxymethyl-2-oxo-oxazolidin-3-yl)-phenoxymethyl]-4-hydroxy-piperidin-1-yl}-4-oxo-1,4-dihydro-quinoline-3-carboxylic acid]
- MIC (C. difficile ATCC 43596): 0.125 µg/mL (≈ 0.213 µM)
- MIC (C. difficile ATCC 9689): 0.125 µg/mL (≈ 0.213 µM)
- MIC (C. difficile NC 13366): 0.06 µg/mL (≈ 0.102 µM)
- MIC90 [1]: 0.25 µg/mL (≈ 0.427 µM)
- MIC [2]: 1 µg/mL (≈ 1.71 µM)
- MIC [3]: 2 µg/mL (≈ 3.42 µM)
- MIC [4]: 2 µg/mL (≈ 3.42 µM)
- MIC [5]: 4 µg/mL (≈ 6.83 µM)
- MIC [6]: 4 µg/mL (≈ 6.83 µM)
- MIC [7]: 4 µg/mL (≈ 6.83 µM)
- MIC ([8]; DSM20698, 48 h, Eubacterium limosum A-1259, DSM 20698): 1 µg/mL (≈ 1.71 µM)
- less activity against Eubacterium limosum A-1259 compared to the compound of Example 5 of WO 2005/058888 ([8]; versus R1): 4 times
- MIC [9]: 0.5 µg/mL (≈ 0.854 µM)
- MIC ([10]; DSM20079, 48 h, Lactobacillus acidophilus A-1255, DSM 20079): 0.5 µg/mL (≈ 0.854 µM)
- less activity against Lactobacillus acidophilus A-1255 compared to the compound of Example 5 of WO 2005/058888 ([10]; versus R1): 8 times
- MIC ([11]; DSM20069, 48 h, Lactococcus lactis A-1256, DSM 20069): 0.5 µg/mL (≈ 0.854 µM)
- less activity against Lactococcus lactis A-1256 compared to the compound of Example 5 of WO 2005/058888 ([11]; versus R1): 8 times
- de novo toxin A production [12]: inhibited de novo toxin A production
- spores of total cell count [13]: < 1%
- MIC (S. aureus ATCC 29213): 0.25 µg/mL (≈ 0.427 µM)
- MIC (S. aureus A-798 (MRSA)): 0.25 µg/mL (≈ 0.427 µM)
- MIC [14]: 0.25 µg/mL (≈ 0.427 µM)
- MIC (E. faecalis ATCC 29212): 0.25 µg/mL (≈ 0.427 µM)
- MIC (E. faecalis H 4060): 0.25 µg/mL (≈ 0.427 µM)
- MIC (E. faecalis H 6279): 0.25 µg/mL (≈ 0.427 µM)
- MIC (E. faecalis H 7094): 0.5 µg/mL (≈ 0.854 µM)
- MIC (E. faecalis H 7460): 1 µg/mL (≈ 1.71 µM)
- MIC (E. faecium ATCC 19434): 0.25 µg/mL (≈ 0.427 µM)
- MIC (E. faecium H 9070): 1 µg/mL (≈ 1.71 µM)
- MIC (E. faecium H 7969): 1 µg/mL (≈ 1.71 µM)
- MIC (E. faecium H 7966): 0.5 µg/mL (≈ 0.854 µM)
- MIC (E. faecium H 7937): 0.25 µg/mL (≈ 0.427 µM)
- MIC (E. faecium A 962): 0.5 µg/mL (≈ 0.854 µM)
- MIC (E. faecium A 949): 1 µg/mL (≈ 1.71 µM)
- MIC (E. faecium L1 (LZD-R)): 2 µg/mL (≈ 3.42 µM)

Reference: patent EP2296651B1, “5-HYDROXYMETHYL-OXAZOLIDIN-2-ONE DERIVATIVES FOR TREATING BACTERIAL INTESTINAL DISEASES” (Actelion Pharmaceuticals Ltd., priority 2008, dated 2009)
